In patent US9187497B2, “Substituted pyrido[3,2-e]pyrrolo[1,2-a]pyrazines as inhibitors of poly(ADP-ribose)polymerase (PARP)” (Takeda Phamaceutical Company Limited, priority 2009, dated 2015):

Columns and labels:
PARP = molecular target: T1, PARP (Homo sapiens, UniProt P09874); assay: PARP ELISA colorimetric assay of inhibition of PARP catalytic activity (IC50); type: biochemical; settings: pIC50=-log(IC50), IC50 in molar concentration; ELISA-based PARP kit, 10 minutes of catalysis
T1 construct: purchased Trevigen 4684-096-01 (enzyme); kit 4684-096-K HT
Protocol: Inhibition Constant (IC50) from PARP ELISA
Inhibition of PARP catalytic activity was determined by use of an ELISA-based colorimetric PARP/Apoptosis Assay kit (part number 4684-096-K HT, Trevigen). To each histone coated well in the 96-well plate supplied by the manufacturer (part number 4677-096-P) is added 39 μl of PARP buffer (part number 4671-096-02) and 1 μl of test compound dissolved in DMSO (diluted serially 3-fold 11 times). After mixing, 5 μl of 0.1 nM PARP (part number 4684-096-01) is added and the solution allowed to stand at ambient temperature for 10 minutes. PARP catalysis is initiated with the addition of 5 μl of 100 μM β-nicotinamide adenine dinucleotide (NAD+) (part number 4684-096-02) with activated DNA (part number 4671-096-06). After 10 minutes of catalysis the reaction is quenched by solvent aspiration followed by irrigation of the assay wells 4 times with phosphate buffered saline (PBS) containing 0.1% t-Octylphenoxypolyethoxyethanol (Triton® X-100). Mouse Anti-poly ADP ribose (PAR) monoclonal antibody, goat antimouse immunoglobulin G (IgG)-horse radish peroxidase (HRP) conjugate and HRP substrate are added according to the manufacture's specifications to generate a colorimetric signal proportional to PARP catalytic activity. An IC50 for the test compound is calculated from the equation Absorbance=(Amax−background)/(1+([cmpd]/IC50)^n)+background fit to the 12 point test compound concentration gradient via nonlinear least squares.

Jurkat cell line = assay: PARP cellular chemopotentiation assay (MTS cell viability with and without TMZ); type: cell-based; settings: ratio of EC50 for inhibition of cell viability without and with 100 μM TMZ; Jurkat cells, 96 hours of treatment
Protocol: Potentiation Factor (PF50) Determination from PARP Cellular Chemopotentiation Assay
Jurkat cell line was maintained according to the supplier (American Type Culture Collection (Rockville, Md.)). Cells were seeded in 96-well tissue culture microplates at 10,000 cells per well and cultured for 24 hours prior to addition of compounds, TMZ (Temozolomide) or DMSO (dimethylsulfoxide) vehicle. After 96 hours of treatment, the conversion of MTS ([3-(4,5-dimethylthiazol-2-yl)-5-(3-carboxymethoxyphenyl)-2-(4-sulfophenyl)-2H-tetrazolium, inner salt], Promega, Madison, Wis.) by metabolically active cells was determined through measuring the OD490 nm with a Spectramax microplate reader (Molecular Devices, San Diego, Calif.). To generate concentration-response curves, cells were treated in duplicate with a range of serial compound dilutions (final DMSO concentration was 0.5%) in the absence or presence of 100 μM TMZ chemoreagent. The percentage of viable cells per well was calculated by correction for background and normalizing against DMSO-treated cells. EC50 values for inhibition of cell viability were calculated using XLfit4 MicroSoft Excel curve-fitting software. Chemopotentiation factor PF50 was calculated as the ratio of EC50 values of cells co-treated without and with TMZ, respectively.

T1 sequence (P09874 whole entry): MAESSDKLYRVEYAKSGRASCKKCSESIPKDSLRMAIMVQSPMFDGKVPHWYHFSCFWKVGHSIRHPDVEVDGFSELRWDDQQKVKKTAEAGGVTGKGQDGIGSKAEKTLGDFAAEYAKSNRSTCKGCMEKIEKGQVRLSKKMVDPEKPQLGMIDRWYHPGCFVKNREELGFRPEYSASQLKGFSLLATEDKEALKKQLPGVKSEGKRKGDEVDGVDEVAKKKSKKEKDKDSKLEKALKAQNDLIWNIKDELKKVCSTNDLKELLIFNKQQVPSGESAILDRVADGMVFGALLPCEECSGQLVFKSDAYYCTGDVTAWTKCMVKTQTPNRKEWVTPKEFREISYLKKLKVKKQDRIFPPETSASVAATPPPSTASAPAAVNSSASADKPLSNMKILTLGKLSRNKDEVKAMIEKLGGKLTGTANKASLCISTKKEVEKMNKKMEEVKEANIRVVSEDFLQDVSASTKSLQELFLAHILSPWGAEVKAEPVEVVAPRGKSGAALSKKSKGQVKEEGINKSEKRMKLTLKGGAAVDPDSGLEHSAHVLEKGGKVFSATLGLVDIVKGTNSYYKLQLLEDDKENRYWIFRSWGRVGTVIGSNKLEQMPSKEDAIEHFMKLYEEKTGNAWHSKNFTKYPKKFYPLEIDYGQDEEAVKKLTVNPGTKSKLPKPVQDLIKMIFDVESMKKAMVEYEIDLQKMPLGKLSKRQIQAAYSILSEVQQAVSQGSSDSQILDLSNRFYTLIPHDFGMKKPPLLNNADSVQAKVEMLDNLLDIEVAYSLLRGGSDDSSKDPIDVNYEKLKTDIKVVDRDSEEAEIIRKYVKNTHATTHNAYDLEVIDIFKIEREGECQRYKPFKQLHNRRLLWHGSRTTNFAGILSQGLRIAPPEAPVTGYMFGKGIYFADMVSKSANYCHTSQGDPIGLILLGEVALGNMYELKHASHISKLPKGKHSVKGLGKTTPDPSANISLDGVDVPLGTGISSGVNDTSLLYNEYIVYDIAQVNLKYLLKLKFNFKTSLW

`CNC(=O)c1ccc(N2CCN(Cc3cnc4c(c3)NC(=O)[C@@H]3CCCN43)CC2)nc1` [Compound 6, (S)—N-methyl-6-(4-((6-oxo-5,6,6a,7,8,9-hexahydropyrido[3,2-e]pyrrolo[1,2-a]pyrazin-3-yl)methyl)piperazin-1-yl)nicotinamide] was tested, and the IC50 (PARP) was no more than 0.0126 µM and the PF50 (Jurkat cell line) was greater than 10.

Work on `CNC(=O)c1ccc(N2CCN(Cc3cnc4c(c3)NC(=O)[C@@H]3CCCN43)CC2)cc1` [Compound 11, (S)—N-methyl-4-(4-((6-oxo-5,6,6a,7,8,9-hexahydropyrido[3,2-e]pyrrolo[1,2-a]pyrazin-3-yl)methyl)piperazin-1-yl)benzamide] yielded an IC50 (PARP) of 0.0158 to 0.0398 µM and a PF50 (Jurkat cell line) greater than 10.

With `CC(C)NC(=O)c1ccc(N2CCN(Cc3cnc4c(c3)NC(=O)[C@@H]3CCCN43)CC2)cc1` [Compound 12, (S)—N-isopropyl-4-(4-((6-oxo-5,6,6a,7,8,9-hexahydropyrido[3,2-e]pyrrolo[1,2-a]pyrazin-3-yl)methyl)piperazin-1-yl)benzamide] the IC50 (PARP) was 0.0158 to 0.0398 µM and the PF50 (Jurkat cell line) was greater than 10.

`O=C1Nc2cc(CN3CCN(c4ccc(F)cc4)CC3)cnc2N2CCC[C@@H]12` [Compound 24, (S)-3-((4-(4-fluorophenyl)piperazin-1-yl)methyl)-6a,7,8,9-tetrahydropyrido[3,2-e]pyrrolo[1,2-a]pyrazin-6(5H)-one] gave an IC50 (PARP) of 0.0158 to 0.0398 µM and a PF50 (Jurkat cell line) greater than 5000.

`Cc1cccc(N2CCN(Cc3cnc4c(c3)NC(=O)[C@@H]3CCCN43)CC2)c1` [Compound 29, (S)-3-((4-m-tolylpiperazin-1-yl)methyl)-6a,7,8,9-tetrahydropyrido[3,2-e]pyrrolo[1,2-a]pyrazin-6(5H)-one] was tested, and the IC50 (PARP) was no less than 0.0501 µM and the PF50 (Jurkat cell line) was greater than 500.

`O=C1Nc2cc(CN3CCN(c4ccc(Br)cc4)CC3)cnc2N2CCC[C@@H]12` [Compound 37, (S)-3-((4-(4-bromophenyl)piperazin-1-yl)methyl)-6a,7,8,9-tetrahydropyrido[3,2-e]pyrrolo[1,2-a]pyrazin-6(5H)-one] gave an IC50 (PARP) of no less than 0.0501 µM and a PF50 (Jurkat cell line) greater than 2000.

`O=C1Nc2cc(CN3CCN(c4ccc(Cl)cn4)CC3)cnc2N2CCC[C@@H]12` [Compound 42, (S)-3-((4-(5-chloropyridin-2-yl)piperazin-1-yl)methyl)-6a,7,8,9-tetrahydropyrido[3,2-e]pyrrolo[1,2-a]pyrazin-6(5H)-one] gave an IC50 (PARP) of no less than 0.0501 µM and a PF50 (Jurkat cell line) greater than 500.

`COC(=O)c1ccc(N2CCN(Cc3cnc4c(c3)NC(=O)[C@@H]3CCCN43)CC2)cc1` [Compound 45, (S)-methyl 4-(4-((6-oxo-5,6,6a,7,8,9-hexahydropyrido[3,2-e]pyrrolo[1,2-a]pyrazin-3-yl)methyl)piperazin-1-yl)benzoate] was tested, and the IC50 (PARP) was 0.0158 to 0.0398 µM and the PF50 (Jurkat cell line) was greater than 10.

Work on `O=C1Nc2cc(CN3CCN(c4ccc(Cl)c(F)c4)CC3)cnc2N2CCC[C@@H]12` [Compound 47, (S)-3-((4-(4-chloro-3-fluorophenyl)piperazin-1-yl)methyl)-6a,7,8,9-tetrahydropyrido[3,2-e]pyrrolo[1,2-a]pyrazin-6(5H)-one] yielded an IC50 (PARP) of no less than 0.0501 µM and a PF50 (Jurkat cell line) greater than 10.

In the case of `O=C1Nc2cc(CN3CC=C(c4ccc(Cl)cc4)CC3)cnc2N2CCCC[C@@H]12` [Compound 68, (S)-3-((4-(4-chlorophenyl)-5,6-dihydropyridin-1(2H)-yl)methyl)-7,8,9,10-tetrahydro-5H-dipyrido[1,2-a:3′,2′-e]pyrazin-6(6aH)-one], the IC50 (PARP) is reported as no more than 0.0126 µM and the PF50 (Jurkat cell line) is reported as greater than 5000.

Work on `O=C1Nc2cc(CN3CCN(c4ccc(Cl)cc4)CC3)cnc2N2CCCC[C@@H]12` [Compound 69, (S)-3-((4-(4-chlorophenyl)piperazin-1-yl)methyl)-7,8,9,10-tetrahydro-5H-dipyrido[1,2-a:3′,2′-e]pyrazin-6(6aH)-one] yielded an IC50 (PARP) of no more than 0.0126 µM and a PF50 (Jurkat cell line) greater than 10.

In the case of `O=C1Nc2cc(CN3CCC(c4ccc(Cl)cc4)CC3)cnc2N2CCCC[C@@H]12` [Compound 70, (S)-3-((4-(4-chlorophenyl)piperidin-1-yl)methyl)-7,8,9,10-tetrahydro-5H-dipyrido[1,2-a:3′,2′-e]pyrazin-6(6aH)-one], the IC50 (PARP) is reported as no less than 0.0501 µM and the PF50 (Jurkat cell line) is reported as “≧0”.

Molecule `N#Cc1ccc(N2CCN(Cc3cnc4c(c3)NC(=O)[C@@H]3CCCCN43)CC2)nc1` [Compound 72, (S)-6-(4-((6-oxo-6,6a,7,8,9,10-hexahydro-5H-dipyrido[1,2-a:3′,2′-e]pyrazin-3-yl)methyl)piperazin-1-yl)nicotinonitrile] has an IC50 (PARP) of no more than 0.0126 µM and a PF50 (Jurkat cell line) greater than 500.

With `CNC(=O)c1ccc(N2CCN(Cc3cnc4c(c3)NC(=O)[C@@H]3CCCCN43)CC2)cc1` [Compound 74, (S)—N-methyl-4-(4-((6-oxo-6,6a,7,8,9,10-hexahydro-5H-dipyrido[1,2-a:3′,2′-e]pyrazin-3-yl)methyl)piperazin-1-yl)benzamide] the IC50 (PARP) was no more than 0.0126 µM and the PF50 (Jurkat cell line) was greater than 10.

With `O=C(NC1CC1)c1ccc(N2CCN(Cc3cnc4c(c3)NC(=O)[C@@H]3CCCCN43)CC2)cc1` [Compound 75, (S)—N-cyclopropyl-4-(4-((6-oxo-6,6a,7,8,9,10-hexahydro-5H-dipyrido[1,2-a:3′,2′-e]pyrazin-3-yl)methyl)piperazin-1-yl)benzamide] the IC50 (PARP) was 0.0158 to 0.0398 µM and the PF50 (Jurkat cell line) was greater than 500.

Molecule `Cc1cscc1-c1ccc(N2CCN(Cc3cnc4c(c3)NC(=O)[C@@H]3CCCCN43)CC2)cc1` [Compound 161, (S)-3-((4-(4-(4-methylthiophen-3-yl)phenyl)piperazin-1-yl)methyl)-7,8,9,10-tetrahydro-5H-dipyrido[1,2-a:3′,2′-e]pyrazin-6(6aH)-one] has an IC50 (PARP) of no less than 0.0501 µM.

Molecule `Cc1ccsc1-c1ccc(N2CCN(Cc3cnc4c(c3)NC(=O)[C@@H]3CCCCN43)CC2)cc1` [Compound 162, (S)-3-((4-(4-(3-methylthiophen-2-yl)phenyl)piperazin-1-yl)methyl)-7,8,9,10-tetrahydro-5H-dipyrido[1,2-a:3′,2′-e]pyrazin-6(6aH)-one] has an IC50 (PARP) of no less than 0.0501 µM.

`O=C1CCC=C1c1ccc(N2CCN(Cc3cnc4c(c3)NC(=O)[C@@H]3CCCCN43)CC2)cc1` [Compound 163, (S)-3-((4-(4-(5-oxocyclopent-1-enyl)phenyl)piperazin-1-yl)methyl)-7,8,9,10-tetrahydro-5H-dipyrido[1,2-a:3′,2′-e]pyrazin-6(6aH)-one] showed an IC50 (PARP) of no less than 0.0501 µM.

Molecule `Cc1ccc(-c2ccc(N3CCN(Cc4cnc5c(c4)NC(=O)[C@@H]4CCCCN54)CC3)cc2)cn1` [Compound 164, (S)-3-((4-(4-(6-methylpyridin-3-yl)phenyl)piperazin-1-yl)methyl)-7,8,9,10-tetrahydro-5H-dipyrido[1,2-a:3′,2′-e]pyrazin-6(6aH)-one] has an IC50 (PARP) of 0.0158 to 0.0398 µM.

With `Cn1cc(-c2ccc(N3CCN(Cc4cnc5c(c4)NC(=O)[C@@H]4CCCCN54)CC3)cc2)cn1` [Compound 165, (S)-3-((4-(4-(1-methyl-1H-pyrazol-4-yl)phenyl)piperazin-1-yl)methyl)-7,8,9,10-tetrahydro-5H-dipyrido[1,2-a:3′,2′-e]pyrazin-6(6aH)-one] the IC50 (PARP) was 0.0158 to 0.0398 µM.

Molecule `Cc1ccnc(-c2ccc(N3CCN(Cc4cnc5c(c4)NC(=O)[C@@H]4CCCCN54)CC3)cc2)c1` [Compound 166, (S)-3-((4-(4-(4-methylpyridin-2-yl)phenyl)piperazin-1-yl)methyl)-7,8,9,10-tetrahydro-5H-dipyrido[1,2-a:3′,2′-e]pyrazin-6(6aH)-one] has an IC50 (PARP) of 0.0158 to 0.0398 µM.

`Cc1cc(-c2ccc(N3CCN(Cc4cnc5c(c4)NC(=O)[C@@H]4CCCCN54)CC3)cc2)ccn1` [Compound 167, (S)-3-((4-(4-(2-methylpyridin-4-yl)phenyl)piperazin-1-yl)methyl)-7,8,9,10-tetrahydro-5H-dipyrido[1,2-a:3′,2′-e]pyrazin-6(6aH)-one] gave an IC50 (PARP) of 0.0158 to 0.0398 µM.

Molecule `O=C1Nc2cc(CN3CCN(c4ccc(-c5cnccn5)cc4)CC3)cnc2N2CCCC[C@@H]12` [Compound 168, (S)-3-((4-(4-(pyrazin-2-yl)phenyl)piperazin-1-yl)methyl)-7,8,9,10-tetrahydro-5H-dipyrido[1,2-a:3′,2′-e]pyrazin-6(6aH)-one] has an IC50 (PARP) of 0.0158 to 0.0398 µM.

Work on `COc1ncccc1-c1ccc(N2CCN(Cc3cnc4c(c3)NC(=O)[C@@H]3CCCCN43)CC2)cc1` [Compound 169, (S)-3-((4-(4-(2-methoxypyridin-3-yl)phenyl)piperazin-1-yl)methyl)-7,8,9,10-tetrahydro-5H-dipyrido[1,2-a:3′,2′-e]pyrazin-6(6aH)-one] yielded an IC50 (PARP) of no less than 0.0501 µM.
